Entries after “also recorded” stand apart in the source; their conditions may differ. Where two headings read alike, the source gives them in different places.
Experiments:
[1] = test system: phospho-Rb, phospho-FOXM1, p53, p21
[2] = In vitro metabolite profile, cryopreserved hepatocytes; type: in vitro ADME, mouse, rat, monkey, human; settings: similar metabolite profile across species
[3] = test system: cytochrome P450 (CYP) enzymes; assay: Inhibition or induction of cytochrome P450 enzymes; type: in vitro ADME; settings: clinically-relevant concentrations
[4] = Pharmacokinetic studies after IV administration of AP1; type: in vivo, mice; settings: rats and monkeys
Text: Using qualified liquid chromatography with tandem mass spectrometry (LC-MS-MS) methods for efficacy models and dose range-finding (DRF) studies, and validated methods for GLP safety studies, exposure was characterized in mice at the MED in efficacy models and in rats and monkeys at tolerated and non-tolerated doses in toxicology studies.

[5] = test system: human osteosarcoma, breast cancer, and melanoma models; assay: Murine xenograft models of human tumors, AP1 single agent; type: in vivo
[6] = Pharmacokinetics of AP1 and palbociclib in non-tumor-bearing nu/nu mice
[7] = Safety pharmacology, cardiac function; type: in vivo; settings: cynomolgus monkeys
[8] = test system: MCF7 breast cancer cells; assay: Cellular senescence, β-galactosidase substrate X-gal, MCF7; type: cell-based, human; settings: 0.3 μM each agent, 7 days
Text: The cells were then washed and visualized with β-galactosidase substrate X-gal.

[9] = test system: rat bone marrow; assay: In vivo micronucleus assay
[10] = Single-dose rat study, clearance and excretion; type: in vivo
[11] = test system: SJSA1 tumor cell proliferation; assay: Edu incorporation assay in SJSA1 xenograft tumors; type: in vivo, mice; settings: day 9; AP1 BIW days 1, 4, 8; palbociclib QD×8
Text: […]. The tumors were then homogenized and assayed by flow cytometry. […].

[12] = test system: Caspase 3; assay: Caspase 3 detection assay in SJSA-1 cells; type: cell-based, human; settings: SJSA-1 osteosarcoma cells
Description: One the day of the assay, the media was replaced with fresh RPMI-11% FBS assay media. […] Control wells contained no cells, and received 200 μL of the assay media.
The solutions were serially diluted 33.3 times using sterile water to provide a range of 10× working stock solutions. […] 20 μL of the 10× working stock solutions were added to the appropriate wells. Row H of the plates had control wells. Wells H1-H3 received 20 μL of the assay media. […] Wells H10-H12 received media and had no cells. […] Nutlin-3a was diluted using the same dilution scheme as the peptides.
10 μL of the 10× stock solutions were added to the appropriate wells to achieve the final concentrations in a total volume of 100 μL. […] 48 h after incubation, 80 μL of the media was aspirated from each well. 100 μL of Caspase 3/7Glo assay reagent was added to each well. […] Data were analyzed as Caspase 3 activation over DMSO-treated cells.

[13] = test system: caspase activation; assay: Apoptosis assay (caspase activation) in SJSA1 cells, combinations; type: cell-based, human; settings: 24 hour pulse treatment with AP1 (followed by CDK4/6 inhibitor where combined)
[14] = test system: RKO-E6; assay: Cell viability assay (MTT), RKO-E6; settings: RKO-E6 cells, p53 suppressed by HPV E6 oncogene
Description: (§2) Cells were trypsinized, counted, and seeded at pre-determined densities in 96-well plates one day prior to conducting the cell viability assay. […] 180 μL of the assay media was added to each well. Control wells were prepared with no cells, and the control wells received 200 μL of media.
(§3) Peptide dilutions were made at room temperature, and the diluted peptide solutions were added to the cells at room temperature. 10 mM stock solutions of the peptides were prepared in DMSO. […] A DMSO/sterile water (3% DMSO) solution was prepared for use in the control well. The working stock solution concentrations ranges were 300 μM, 100 μM, 30 μM, 10 μM, 3 μM, 1 μM, 0.3 μM, and 0 μM. The solutions were mixed well at each dilution step using a multichannel pipette.
(§4) Row H of the plate contained the controls. Wells H1-H3 received 20 μL of assay media. Rows H4-H9 received 20 μL of the 3% DMSO-water vehicle. Wells H10-H12 received media alone control with no cells.
(§5) 20 μL of a 10× concentration peptide stock solution was added to the appropriate well to achieve the final concentration in 200 μL in each well. […]
(§6) The viability of the cells was determined using MTT reagent. The viability of SJSA-1, RKO, RKO-E6, HCT-116 cells was determined on day 3. The viability of MCF7 cells was determined on day 5. The viability of SW-480 cells was determined on day 6. […] Cell viability was analyzed against the DMSO controls.

[15] = test system: SW-480; assay: Cell viability assay (MTT), SW-480; type: cell-based; settings: SW480 cells, colorectal cancer cell line with mutated p53
Description: as §2, §3, §4, §5, §6

[16] = test system: E2F1 mRNA; settings: SJSA1, following wash-out
[17] = test system: MCF7 tumor; type: in vivo; settings: twice-weekly treatment, dose-dependent TGI
Text: SJSA1 harbors DNA amplification of both MDM2 and CDK4 genes, which neighbor one another on chromosome 12q, while MCF7 harbors a deletion of the CDKN2A gene, the product of which is a natural inhibitor of MDM2 and CDK4. […]

[18] = test system: MCF7 cells; type: cell-based, human; settings: Palbo 0.0 μM
[19] = test system: plasma protein; assay: In vitro plasma protein binding; type: in vitro ADME, mouse, rat, dog, monkey, human
[20] = In vitro plasma protein binding; type: in vitro ADME, mouse, rat, dog, monkey, human; settings: for free AP1 fraction: human and monkey plasma
[21] = 4-week multiple-dose GLP toxicity study in rats; type: in vivo
Description: (§1) The studies provided dose- and exposure-related assessments during both dosing and recovery periods, and the results were analyzed to define the maximum tolerated doses (MTD) and estimate the severely toxic dose for 10% (STD10) of rats and the highest non-severely toxic dose (HNSTD) in monkeys. All gross and microscopic signs of intolerance (e.g., reduced organ weights, sporadic findings of multi-tissue hemorrhage and hepatic necrosis) and changes in serum chemistry parameters were considered as secondary to red blood cell (RBC), platelet and/or white blood cell (WBC) depletions, or anorexia and dehydration in both species.

[22] = 4-week multiple-dose GLP toxicity study in monkeys; type: in vivo
Description: as §1

[23] = test system: bacterial mutagenicity (Ames); assay: Bacterial mutagenicity (Ames)
[24] = nu/nu, mouse, in vivo, 20 mg/kg

CC(=O)N[C@@H](CC(C)C)C(=O)N[C@H](C(=O)N[C@@H](Cc1ccccc1)C(=O)N[C@]1(C)CCCCCC/C=C\CCC[C@@](C)(C(=O)N[C@@H](C)C(=O)N[C@@H](C)C(=O)N[C@@H](C)C(=O)N[C@@H](C)C(=O)N[C@@H](C)C(=O)N[C@H](C)C(N)=O)NC(=O)[C@H](CC(C)C)NC(=O)[C@H](CCC(N)=O)NC(=O)[C@H](C)NC(=O)[C@H](Cc2c[nH]c3ccccc23)NC(=O)[C@H](Cc2ccc(O)cc2)NC(=O)[C@H](CCC(=O)O)NC1=O)[C@@H](C)O [AP1]
p53 and p21 ([1]; SJSA1, after washout): sustained p53 and p21 up-regulation | p53 and p21 ([1]; SJSA1, single agent and in combination): up-regulated p53 and p21 | major biotransformation pathway [2]: Proteolysis | inhibition or induction of cytochrome P450 (CYP) enzymes [3]: negligible; also recorded: low likelihood of induction or inhibition | accumulation following multiple doses [4]: no accumulation was observed | dose proportionality of exposure ([4]; plateau at highest dose of 4-week monkey study): Exposures generally increased proportionally with dose | tumor growth inhibition (TGI) ([5]; IV dosages, each xenograft model): Statistically significant tumor growth inhibition | apoptosis, cleaved PARP, in vivo PD assays ([5]; xenograft tumors): increase in cleaved poly-ADP-ribose polymerase (PARP) | p21, in vivo PD assays ([5]; xenograft tumors): increased p21 | p53 protein, in vivo PD assays ([5]; xenograft tumors): increased p53 protein | tumor cell proliferation, in vivo PD assays ([5]; xenograft tumors): decreased tumor cell proliferation | effect of co-administration on PK ([6]; non-tumor-bearing nu/nu mice): not affected by palbociclib | AUC(0-t) [6, 24]: 686 µg·h/mL | Cmax [6, 24]: 138 µg/mL | effects on cardiac function [7]: No significant adverse findings | cellular senescence [8]: induced cellular senescence | in vivo micronucleus [9]: negative | predominant clearance pathway [10]: hepatobiliary metabolism and elimination | tumor cell proliferation (Edu incorporation, flow cytometry) [11]: decreased cell proliferation | cellular caspase activity [12]: increases in cellular caspase activity | caspase activation / apoptosis [13]: sustained apoptotic effects | concentration at which not cytotoxic [14]: exceeding 30 μM | cell viability [15]: did not affect cell viability | E2F1 mRNA [16]: did not exhibit repression of E2F1 mRNA | minimum efficacious dose (MED) [17]: 5 mg/kg | % inhibition ([18]; AP1 0.001 μM): −2.2% | % inhibition ([18]; AP1 0.003 μM): −19.2% | % inhibition ([18]; AP1 0.01 μM): −7.3% | % inhibition ([18]; AP1 0.03 μM): −9.1% | % inhibition ([18]; AP1 0.1 μM): 25.0% | % inhibition ([18]; AP1 0.3 μM): 62.3% | % inhibition ([18]; AP1 30 μM): 100.0% | % inhibition ([18]; AP1 .0003 μM): −18.1% | fraction unbound ([19]; mouse and rat plasma, up to 250 μM): < 0.02 | fraction unbound at 2 μM ([19]; mouse, rat, dog, monkey, human, plasma): 0.02 to 0.08 | free AP1 fraction ([20]; AP1 up to 150 μM): 3-4% | free AP1 fraction ([20]; concentrations >200 μM): 12-14% | concentration at which a similar rise of free fraction was observed ([20]; plasma from hypoalbuminemic patients): > 100 µM | AUC(0-inf) ([21]; in vivo, intravenous, rat STD10, 10 mg/kg): 562 µg·h/mL | severely toxic dose in 10% of the animals (STD10) ([21]; rats, twice-weekly IV, 4 weeks): 10 mg/kg | AUC(0-inf) ([22]; in vivo, intravenous, monkey HNSTD, 5 mg/kg): 813 µg·h/mL | significant thrombocytopenia (<100,000×10^6/ml) ([22]; monkeys, mid- and high-dose levels): Only one animal at each of these dose levels developed significant thrombocytopenia | highest non-severely toxic dose (HNSTD) ([22]; monkeys, twice-weekly IV, 4 weeks): 5 mg/kg | peripheral blood platelets ([22]; varying doses, recovered upon cessation of dosing, female results): significant decrease in peripheral blood platelets | bacterial mutagenicity (Ames) [23]: negative
